Experimental data: article PMC10141580, “Cyclic Dichalcogenides Extend the Reach of Bioreductive Prodrugs to Harness Thiol/Disulfide Oxidoreductases: Applications to seco-Duocarmycins Targeting the Thioredoxin System” (ACS Central Science, 2023)
Several values for one entry are separate records, joined by “and”; a condition that tells them apart may be missing. Equal entries are not always repeated. Where two headings read alike, the source gives them in different places.

Test system: panel of 140 standard cancer cell lines
Test: ProliFiler-140 cancer cell line screen (CellTiterGlo, 72 h)
Assay type: cell-based
Experimental: Incubations were performed for 72 h before automated viability readout with CellTiterGlo (Figure 8).
End of Figure S11 (part 5 of 5): ProliFiler-140 cancer cell line screening for cytotoxicity of the prodrugs.
8-data-point dose response curves from CellTiter-Glo® viability readout.
ProliFiler-140 cell line panel part V

SMILES: COc1cc2cc(C(=O)N3C[C@@H](CCl)c4c3cc(OC(=O)N3CCN(C(=O)CCC(=O)N5CCN(C)CC5)[C@H]5CSSC[C@H]53)c3ccccc43)[nH]c2c(OC)c1OC [P-SS66C-CBI-TMI]
- Reductive Activation Index (786-O (Kidney)): 4.12
- Reductive Activation Index (A172 (Brain)): 5.35
- Reductive Activation Index (A375 (Skin)): 3.01
- Reductive Activation Index (A427 (Lung)): 19 and 18.60
- Reductive Activation Index (A498 (Kidney)): 3.19
- Reductive Activation Index (A549 (Lung)): 25
- Reductive Activation Index (AsPC-1 (Pancreas)): 8.2
- Reductive Activation Index (BEN (Lung)): 27
- Reductive Activation Index (BT-20 (Breast)): 9.1
- IC50 (COV434, read-out: IC50 [M] (ProliFiler-140), COV434 (Ovary)): 1.5e-08 M
- Reductive Activation Index (Caki-1 (Kidney)): 5.18
- Reductive Activation Index (Caki-2 (Kidney)): 5.62 and 5.6
- Reductive Activation Index (Calu-6 (Lung)): 5.77
- Reductive Activation Index (Colo 205 (Colon)): 8.8
- Reductive Activation Index (DLD-1 (Colon)): 6.33 and 6.3
- Reductive Activation Index (EFM-19 (Breast)): 3.1 and 3.08
- Reductive Activation Index (EFM-192A (Breast)): 6.6
- IC50 (EFM-192A, read-out: IC50 [M] (ProliFiler-140), EFM-192A (Breast)): 2.7e-07 M
- Reductive Activation Index (EFO-27 (Ovary)): 15
- Reductive Activation Index (H4 (Brain)): 5.82
- Reductive Activation Index (H460 (Lung)): 9.3
- Reductive Activation Index (HCC202 (Breast)): 9.8
- IC50 (HCC202, read-out: IC50 [M] (ProliFiler-140), HCC202 (Breast)): 9.1e-08 M
- Reductive Activation Index (HCC827 (Lung)): 15
- Reductive Activation Index (HCC 1569 (Breast)): 28
- Reductive Activation Index (HCT-15 (Colon)): 3.89
- Reductive Activation Index (HEC-1-A (Endometrium)): 18
- Reductive Activation Index (HEC-1-B (Endometrium)): 8.3
- Reductive Activation Index (HT-29 (Colon)): 9.5
- Reductive Activation Index (HeLa (Ovary)): 23.88
- Reductive Activation Index (Hep3B2.1-7 (Liver)): 7.8
- IC50 (Homo sapiens, 786-0, read-out: IC50 [M] (ProliFiler-140), 786-O (Kidney)): 2.86e-08 M
- IC50 (Homo sapiens, A 172, read-out: IC50 [M] (ProliFiler-140), A172 (Brain)): 1.07e-07 M
- IC50 (Homo sapiens, A498, read-out: IC50 [M] (ProliFiler-140), A498 (Kidney)): 9.41e-08 M
- IC50 (Homo sapiens, A549, read-out: IC50 [M] (ProliFiler-140), A549 (Lung)): 3e-08 M
- IC50 (Homo sapiens, A2058, read-out: IC50 [M] (ProliFiler-140), A2058 (Skin)): 1.1e-08 M
- IC50 (Homo sapiens, A2780, read-out: IC50 [M] (ProliFiler-140), A2780 (Ovary)): 8.1e-09 M
- IC50 (Homo sapiens, A-375, read-out: IC50 [M] (ProliFiler-140), A375 (Skin)): 5.45e-08 M
- IC50 (Homo sapiens, A-427, read-out: IC50 [M] (ProliFiler-140), A427 (Lung)): 4.4e-08 M
- IC50 (Homo sapiens, A-431, read-out: IC50 [M] (ProliFiler-140), A431 (Skin)): 2.02e-08 M
- IC50 (Homo sapiens, ASPC1, read-out: IC50 [M] (ProliFiler-140), AsPC-1 (Pancreas)): 2.6e-07 M
- IC50 (Homo sapiens, BT-20, read-out: IC50 [M] (ProliFiler-140), BT-20 (Breast)): 1.2e-07 M
- IC50 (Homo sapiens, BXPC-3, read-out: IC50 [M] (ProliFiler-140), BxPC-3 (Pancreas)): 4.64e-08 M
- IC50 (Homo sapiens, CAKI-1, Caki-1): 6.3e-08 M
- IC50 (Homo sapiens, CAKI-1, read-out: IC50 [M] (ProliFiler-140), Caki-1 (Kidney)): 6.34e-08 M
- IC50 (Homo sapiens, CAKI-2, read-out: IC50 [M] (ProliFiler-140), Caki-2 (Kidney)): 2.69e-07 M
- IC50 (Homo sapiens, COLO 205, Colo 205): 8.6e-08 M
- IC50 (Homo sapiens, COLO 205, read-out: IC50 [M] (ProliFiler-140), Colo 205 (Colon)): 8.6e-08 M
- IC50 (Homo sapiens, COR-L279, read-out: IC50 [M] (ProliFiler-140), COR-L279 (Lung)): 7.2e-09 M
- IC50 (Homo sapiens, Calu-6, read-out: IC50 [M] (ProliFiler-140), Calu-6 (Lung)): 5.93e-08 M
- IC50 (Homo sapiens, DLD-1, read-out: IC50 [M] (ProliFiler-140), DLD-1 (Colon)): 1.25e-07 M
- IC50 (Homo sapiens, DU-145, read-out: IC50 [M] (ProliFiler-140), DU-145 (Prostate)): 1.6e-08 M
- IC50 (Homo sapiens, DV-90, read-out: IC50 [M] (ProliFiler-140), DV90 (Lung)): 1.2e-08 M
- IC50 (Homo sapiens, Detroit 562, read-out: IC50 [M] (ProliFiler-140), Detroit562 (Head/Neck)): 1.88e-08 M
- IC50 (Homo sapiens, EFM-19, read-out: IC50 [M] (ProliFiler-140), EFM-19 (Breast)): 3.1e-07 M
- IC50 (Homo sapiens, EFO-27, read-out: IC50 [M] (ProliFiler-140), EFO-27 (Ovary)): 6.2e-08 M
- IC50 (Homo sapiens, EPLC-272H, read-out: IC50 [M] (ProliFiler-140), EPLC-272H (Lung)): 4.57e-08 M
- IC50 (Homo sapiens, HCC38, read-out: IC50 [M] (ProliFiler-140), HCC38 (Breast)): 1.35e-08 M
- IC50 (Homo sapiens, HCC827, read-out: IC50 [M] (ProliFiler-140), HCC827 (Lung)): 9.1e-08 M
- IC50 (Homo sapiens, HCC1569, read-out: IC50 [M] (ProliFiler-140), HCC 1569 (Breast)): 3.6e-08 M
- IC50 (Homo sapiens, HCT-15, HCT-15): 1.4e-07 M
- IC50 (Homo sapiens, HCT-15, read-out: IC50 [M] (ProliFiler-140), HCT-15 (Colon)): 1.4e-07 M
- IC50 (Homo sapiens, HCT-116, HCT116): 3.2e-08 M
- IC50 (Homo sapiens, HCT-116, read-out: IC50 [M] (ProliFiler-140), HCT116 (Colon)): 3.23e-08 M
- IC50 (Homo sapiens, HEC-1-A, read-out: IC50 [M] (ProliFiler-140), HEC-1-A (Endometrium)): 1e-07 M
- IC50 (Homo sapiens, HEC-1B, read-out: IC50 [M] (ProliFiler-140), HEC-1-B (Endometrium)): 4e-07 M
- IC50 (Homo sapiens, HL-60, HL-60): 1.5e-08 M
- IC50 (Homo sapiens, HL-60, read-out: IC50 [M] (ProliFiler-140), HL-60 (Blood)): 1.5e-08 M
- IC50 (Homo sapiens, HT-29, HT-29): 1.1e-07 M
- IC50 (Homo sapiens, HT-29, read-out: IC50 [M] (ProliFiler-140), HT-29 (Colon)): 1.1e-07 M
- IC50 (Homo sapiens, HT-1080, read-out: IC50 [M] (ProliFiler-140), HT-1080 (Fibrosarcoma)): 2.13e-08 M
- IC50 (Homo sapiens, HeLa, read-out: IC50 [M] (ProliFiler-140), HeLa (Ovary)): 9.89e-09 M
- IC50 (Homo sapiens, Hs746T, read-out: IC50 [M] (ProliFiler-140), Hs 746T (Stomach)): 7.5e-08 M
- IC50 (Homo sapiens, HuTu80, read-out: IC50 [M] (ProliFiler-140), Hutu 80 (Duodenum)): 9.56e-09 M
- IC50 (Homo sapiens, Huh-7, read-out: IC50 [M] (ProliFiler-140), HuH7 (Liver)): 1e-07 M
- IC50 (Homo sapiens, Ishikawa, read-out: IC50 [M] (ProliFiler-140), Ishikawa (Endometrium)): 3.8e-09 M
- IC50 (Homo sapiens, JIMT-1, read-out: IC50 [M] (ProliFiler-140), JIMT-1 (Breast)): 1e-07 M
- IC50 (Homo sapiens, JVM-3, read-out: IC50 [M] (ProliFiler-140), JVM-3 (Blood)): 3.36e-09 M
- IC50 (Homo sapiens, Jurkat, read-out: IC50 [M] (ProliFiler-140), Jurkat (Blood)): 6.17e-09 M
- IC50 (Homo sapiens, K562, read-out: IC50 [M] (ProliFiler-140), K562 (Blood)): 1.3e-07 M
- IC50 (Homo sapiens, KARPAS-299, KARPAS 299 (Blood), read-out: IC50 [M] (ProliFiler-140)): 1.08e-07 M
- IC50 (Homo sapiens, KATO III, read-out: IC50 [M] (ProliFiler-140), Kato III (Stomach)): 2.2e-07 M
